These results are taken from patent US11986471B2, “Compounds and methods of use” (Tango Therapeutics, Inc., priority 2018, dated 2024).

One may read the IC50 as the concentration needed to halve the response being measured.

Assay [1] addresses T1, PRMT5 (Homo sapiens, UniProt O14744).
T1 construct: purchased Viva (custom protein)
The assay can be described thus: PRMT5 IC50 assay in the presence of SAM as cofactor. It is filed as biochemical. Put shortly:
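Three cofactor conditions are run: SAM-bound, MTA-bound and cofactor-free enzyme. IC50 is read from each; for the SAM and MTA arms it is divided by 1.5 and 13.5 respectively to give Ki.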

Assay [2] concerns the target T1, PRMT5. Kind of assay: PRMT5 IC50 assay with no cofactor. It is filed as biochemical. The method in brief:
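Three cofactor conditions tested for PRMT5 inhibition: none, MTA and SAM, each giving an IC50. For conversion to Ki, the MTA-condition IC50 is divided by 13.5 and the SAM-condition IC50 by 1.5, and the two Ki values are expressed as a SAM/MTA ratio.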

For assay [3], the target named is T1, PRMT5. The assay can be described thus: PRMT5 IC50 assay in the presence of MTA as cofactor. It is filed as biochemical. Conditions: for IC50: PRMT5, MTA as cofactor. The method in brief: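 IC50 values were measured against human PRMT5 with SAM, with MTA, or with no cofactor. Ki was derived from IC50 as Ki=IC50/1.5 with SAM and Ki=IC50/13.5 with MTA, and the Ki(SAM)/Ki(MTA) ratio was then taken.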

The test system of a further assay is HAP1 MTAP-intact. The assay can be described thus: SDMA in-cell western assay, HAP1 MTAP-intact cell line. It is filed as cell-based. The following applies: Homo sapiens. The method in brief:
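IC50 values come from SDMA in-cell western staining of HAP1 cells. The MTAP-intact line carries endogenous MTAP, while its MTAP-deleted counterpart lacks MTAP entirely. A selectivity ratio of at least 3 fold marks a compound as MTAP-selective.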

Another assay deals with HAP1 MTAP-deleted. The assay can be described thus: SDMA in-cell western assay, HAP1 MTAP-deleted cell line. It is filed as cell-based. The following applies: for IC50: Homo sapiens, HAP1 MTAP-deleted cell line; for MTAP Intact/Deleted Ratio: IC50 ratio HAP1 MTAP-intact / HAP1 MTAP-deleted. The method in brief:
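Readout is cellular SDMA signal by in-cell western, with IC50 values derived from it. The cells are MTAP-null HAP1, matched to an isogenic MTAP-intact HAP1 line.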

[4] abbreviates: ratio between Ki in the presence of SAM and Ki in the presence of MTA.
[5] abbreviates: ratio between the Ki in the presence of SAM and the Ki in the presence of MTA.

T1 sequence (O14744 whole entry): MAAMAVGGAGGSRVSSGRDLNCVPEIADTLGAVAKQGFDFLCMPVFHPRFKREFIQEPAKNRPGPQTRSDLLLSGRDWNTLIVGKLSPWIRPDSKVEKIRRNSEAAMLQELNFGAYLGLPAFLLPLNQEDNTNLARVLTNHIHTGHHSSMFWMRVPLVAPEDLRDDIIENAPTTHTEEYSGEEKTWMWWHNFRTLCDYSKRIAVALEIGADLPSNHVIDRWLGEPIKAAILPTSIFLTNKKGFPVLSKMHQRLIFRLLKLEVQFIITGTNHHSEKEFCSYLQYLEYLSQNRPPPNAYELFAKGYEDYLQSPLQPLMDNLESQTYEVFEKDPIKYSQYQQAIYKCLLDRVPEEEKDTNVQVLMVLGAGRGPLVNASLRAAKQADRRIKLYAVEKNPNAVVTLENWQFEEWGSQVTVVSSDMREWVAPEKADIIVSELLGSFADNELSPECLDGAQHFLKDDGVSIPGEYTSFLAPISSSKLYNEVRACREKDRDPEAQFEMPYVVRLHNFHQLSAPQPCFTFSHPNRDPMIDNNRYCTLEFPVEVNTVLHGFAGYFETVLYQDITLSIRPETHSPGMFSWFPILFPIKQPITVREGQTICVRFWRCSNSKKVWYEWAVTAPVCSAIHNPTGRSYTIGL
T1 sequence (Q9BQA1 whole entry partner): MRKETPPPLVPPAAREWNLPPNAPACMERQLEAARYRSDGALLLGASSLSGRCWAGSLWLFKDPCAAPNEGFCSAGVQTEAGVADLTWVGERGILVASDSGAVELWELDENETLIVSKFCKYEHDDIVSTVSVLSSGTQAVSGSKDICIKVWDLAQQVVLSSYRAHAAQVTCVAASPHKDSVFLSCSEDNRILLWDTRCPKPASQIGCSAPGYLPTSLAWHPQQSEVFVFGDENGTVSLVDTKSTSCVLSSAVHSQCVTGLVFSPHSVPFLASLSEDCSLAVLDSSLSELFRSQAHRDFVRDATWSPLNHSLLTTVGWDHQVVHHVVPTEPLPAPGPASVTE

In the case of `CC(=O)N1CC(Nc2cc(C(=O)NC[C@H](O)CN3CCc4c(ccc(OCc5cnco5)c4Cl)C3)nc(C(C)(C)C)n2)C1` [Compound 360, (S)-6-((1-acetylazetidin-3-yl)amino)-2-(tert-butyl)-N-(3-(5-chloro-6-(oxazol-5-ylmethoxy)-3,4-dihydroisoquinolin-2(1H)-yl)-2-hydroxypropyl)pyrimidine-4-carboxamide], the IC50 on PRMT5 [1] is 50 to 500 nM; on PRMT5 [2] (read-out: No Co-factor IC50), 500 to 5000 nM; on PRMT5 [3], 50 to 500 nM; with HAP1 MTAP-intact, at least 10000 nM; in the assay on HAP1 MTAP-deleted, under 1000 nM. In addition, the “SAM/MTA Ratio” value on PRMT5 [3] (setting [4]) is “A (a Ki ratio greater than or equal to 10 fold between the Ki in the presence of SAM and the Ki in the presence of MTA)”. For the same compound, the “MTAP Intact/Deleted Ratio” value in the assay on HAP1 MTAP-deleted was “A* (an IC50 ratio greater than or equal to 10 fold between the IC50 in the HAP1 MTAP-intact cell line and the HAP1 MTAP-deleted cell line)”.

Consider `Cc1ncoc1COc1ccc2c(c1)CCN(C[C@@H](O)CNC(=O)c1ccnc(NC3CC4(CC4)C3)c1)C2` [Compound 621, (S)—N-(2-hydroxy-3-(6-((4-methyloxazol-5-yl)methoxy)-3,4-dihydroisoquinolin-2(1H)-yl)propyl)-2-(spiro[2.3]hexan-5-ylamino)isonicotinamide], for which the IC50 is 50 to 500 nM on PRMT5 [1]; 500 to 5000 nM against PRMT5 [2]; 50 to 500 nM on PRMT5 [3]; under 1000 nM in the assay on HAP1 MTAP-intact; under 1000 nM in the assay with HAP1 MTAP-deleted. On PRMT5 [3] (setting [5]), the “SAM/MTA Ratio” value is “A (a Ki ratio greater than or equal to 10 fold between the Ki in the presence of SAM and the Ki in the presence of MTA)”. The “MTAP Intact/Deleted Ratio” value in the assay with HAP1 MTAP-deleted was “B* (an IC50 ratio greater than or equal to 3 fold but lower than 10 fold between the IC50 in the HAP1 MTAP-intact cell line and the HAP1 MTAP-deleted cell line)”.

In the case of `CC(=O)N1CCN(c2nc(NC3COC3)cc(C(=O)NC[C@H](O)CN3CCc4c(ccc(OCc5ocnc5C)c4C)C3)n2)CC1` [Compound 499, 2-(4-acetylpiperazin-1-yl)-N-[(2S)-2-hydroxy-3-{5-methyl-6-[(4-methyl-1,3-oxazol-5-yl)methoxy]-1,2,3,4-tetrahydroisoquinolin-2-yl}propyl]-6-[(oxetan-3-yl)amino]pyrimidine-4-carboxamide], the IC50 at PRMT5 [1] was 500 to 5000 nM; at PRMT5 [2], at least 5000 nM; at PRMT5 [3], 50 to 500 nM; with HAP1 MTAP-intact, at least 10000 nM; in the assay on HAP1 MTAP-deleted it was at least 10000 nM. Moreover, at PRMT5 [3] (setting [5]), the “SAM/MTA Ratio” value is “A (a Ki ratio greater than or equal to 10 fold between the Ki in the presence of SAM and the Ki in the presence of MTA)”. The “MTAP Intact/Deleted Ratio” value in the assay with HAP1 MTAP-deleted is “C* (an IC50 ratio of less than 3 fold between the IC50 in the HAP1 MTAP-intact cell line and the HAP1 MTAP-deleted cell line)”.

For the compound `Cc1ncoc1COc1ccc2c(c1)CCN(C[C@@H](O)CNC(=O)c1cc(NC3CCN(C(=O)C(C)(C)C)CC3)ncn1)C2` [Compound 616, 6-{[1-(2,2-dimethylpropanoyl)piperidin-4-yl]amino}-N-[(2S)-2-hydroxy-3-{6-[(4-methyl-1,3-oxazol-5-yl)methoxy]-1,2,3,4-tetrahydroisoquinolin-2-yl}propyl]pyrimidine-4-carboxamide], the IC50 at PRMT5 [1] was 50 to 500 nM; at PRMT5 [2], 500 to 5000 nM; on PRMT5 [3] it was under 50 nM; in the assay with HAP1 MTAP-intact, 1000 to 10000 nM; in the assay on HAP1 MTAP-deleted, under 1000 nM. Further, the “SAM/MTA Ratio” value on PRMT5 [3] (setting [5]) is “A (a Ki ratio greater than or equal to 10 fold between the Ki in the presence of SAM and the Ki in the presence of MTA)”. The “MTAP Intact/Deleted Ratio” value in the assay with HAP1 MTAP-deleted is “C* (an IC50 ratio of less than 3 fold between the IC50 in the HAP1 MTAP-intact cell line and the HAP1 MTAP-deleted cell line)”.

In the case of `O=C(NC[C@H](O)CN1CCc2cc(OCc3cnco3)ccc2C1)c1cc(NC2CCCCC2)ncn1` [Compound 395, (S)-6-(cyclohexylamino)-N-(2-hydroxy-3-(6-(oxazol-5-ylmethoxy)-3,4-dihydroisoquinolin-2(1H)-yl)propyl)pyrimidine-4-carboxamide], the IC50 on PRMT5 [1] was 500 to 5000 nM; at PRMT5 [2] (read-out: No Co-factor IC50), at least 5000 nM; at PRMT5 [3], 50 to 500 nM; in the assay with HAP1 MTAP-intact it was at least 10000 nM; in the assay on HAP1 MTAP-deleted it was 1000 to 10000 nM. In addition, the “SAM/MTA Ratio” value on PRMT5 [3] (setting [4]) is “A (a Ki ratio greater than or equal to 10 fold between the Ki in the presence of SAM and the Ki in the presence of MTA)”.

Turning to `O=C(NC[C@H](O)CN1CCc2cc(OCc3cnco3)ccc2C1)c1cccc(NC2CCC2)c1` [Compound 259, (S)-3-(cyclobutylamino)-N-(2-hydroxy-3-(6-(oxazol-5-ylmethoxy)-3,4-dihydroisoquinolin 2(1H)-yl)propyl)benzamide], the IC50 at PRMT5 [1] was 500 to 5000 nM; at PRMT5 [2] (read-out: No Co-factor IC50), at least 5000 nM; on PRMT5 [3] it was 500 to 5000 nM; in the assay on HAP1 MTAP-intact, under 1000 nM; in the assay on HAP1 MTAP-deleted, under 1000 nM. Besides, on PRMT5 [3] (setting [4]), the “SAM/MTA Ratio” value was “A (a Ki ratio greater than or equal to 10 fold between the Ki in the presence of SAM and the Ki in the presence of MTA)”. For the same compound, the “MTAP Intact/Deleted Ratio” value in the assay with HAP1 MTAP-deleted was “C* (an IC50 ratio of less than 3 fold between the IC50 in the HAP1 MTAP-intact cell line and the HAP1 MTAP-deleted cell line)”.

Consider `CCN(C)c1nc(NC2COC2)cc(C(=O)NC[C@H](O)CN2CCc3c(ccc(OCc4ocnc4C)c3C)C2)n1` [Compound 477], for which the IC50 on PRMT5 [1] is 50 to 500 nM; against PRMT5 [2] it was at least 5000 nM; at PRMT5 [3], 50 to 500 nM; with HAP1 MTAP-intact, at least 10000 nM; with HAP1 MTAP-deleted it was 1000 to 10000 nM. Also, the “SAM/MTA Ratio” value on PRMT5 [3] (setting [5]) was “A (a Ki ratio greater than or equal to 10 fold between the Ki in the presence of SAM and the Ki in the presence of MTA)”. In addition, the “MTAP Intact/Deleted Ratio” value in the assay on HAP1 MTAP-deleted was “B* (an IC50 ratio greater than or equal to 3 fold but lower than 10 fold between the IC50 in the HAP1 MTAP-intact cell line and the HAP1 MTAP-deleted cell line)”.

As to `Cc1c(OCc2cnco2)ccc2c1CCN(C[C@@H](O)CNC(=O)c1cc(NC3CCN(C(=O)C4CCC4)CC3)ncn1)C2` [Compound 536, 6-[(1-cyclobutanecarbonylpiperidin-4-yl)amino]-N-[(2S)-2-hydroxy-3-{5-methyl-6-[(1,3-oxazol-5-yl)methoxy]-1,2,3,4-tetrahydroisoquinolin-2-yl}propyl]pyrimidine-4-carboxamide], the half-maximal inhibitory concentration (IC50) on PRMT5 [1] was 50 to 500 nM; against PRMT5 [2], 500 to 5000 nM; on PRMT5 [3], 50 to 500 nM; with HAP1 MTAP-intact, at least 10000 nM; in the assay on HAP1 MTAP-deleted, 1000 to 10000 nM. In addition, the “SAM/MTA Ratio” value on PRMT5 [3] (setting [5]) was “A (a Ki ratio greater than or equal to 10 fold between the Ki in the presence of SAM and the Ki in the presence of MTA)”. Further, in the assay with HAP1 MTAP-deleted, the “MTAP Intact/Deleted Ratio” value is “B* (an IC50 ratio greater than or equal to 3 fold but lower than 10 fold between the IC50 in the HAP1 MTAP-intact cell line and the HAP1 MTAP-deleted cell line)”.

For the compound `O=C(NC[C@H](O)CN1CCc2c(ccc(OCc3cnco3)c2Cl)C1)c1ccnc(NC2CCC(F)CC2)c1` (stereo partly drawn) [Compound 311, (S)—N-(3-(5-chloro-6-(oxazol-5-ylmethoxy)-3N-dihydroisoquinolin-2(1H)-yl)-2-hydroxypropyl)-2-((4-fluorocyclohexyl)amino)isonicotinamide], the IC50 was 50 to 500 nM on PRMT5 [1]; at least 5000 nM on PRMT5 [2] (read-out: No Co-factor IC50); 50 to 500 nM on PRMT5 [3]; at least 10000 nM in the assay with HAP1 MTAP-intact; at least 10000 nM in the assay on HAP1 MTAP-deleted. Moreover, the “SAM/MTA Ratio” value on PRMT5 [3] (setting [4]) is “A (a Ki ratio greater than or equal to 10 fold between the Ki in the presence of SAM and the Ki in the presence of MTA)”. The “MTAP Intact/Deleted Ratio” value in the assay on HAP1 MTAP-deleted is “C* (an IC50 ratio of less than 3 fold between the IC50 in the HAP1 MTAP-intact cell line and the HAP1 MTAP-deleted cell line)”.

With `Cn1nccc1COc1cc(F)c2c(c1Cl)CCN(C[C@@H](O)CNC(=O)c1ccnc(NC3CCC3)c1)C2` [Compound 282, N-[(2S)-3-[5-chloro-8-fluoro-6-[(2-methylpyrazol-3-yl)methoxy]-3,4-dihydro-1H-isoquinolin-2-yl]-2-hydroxy-propyl]-2-(cyclobutylamino)pyridine-4-carboxamide], the IC50 was 500 to 5000 nM on PRMT5 [1]; at least 5000 nM at PRMT5 [2] (read-out: No Co-factor IC50); 500 to 5000 nM at PRMT5 [3]; at least 10000 nM in the assay on HAP1 MTAP-intact; at least 10000 nM in the assay on HAP1 MTAP-deleted. The “SAM/MTA Ratio” value on PRMT5 [3] (setting [4]) is “A (a Ki ratio greater than or equal to 10 fold between the Ki in the presence of SAM and the Ki in the presence of MTA)”. For the same compound, the “MTAP Intact/Deleted Ratio” value in the assay on HAP1 MTAP-deleted is “C* (an IC50 ratio of less than 3 fold between the IC50 in the HAP1 MTAP-intact cell line and the HAP1 MTAP-deleted cell line)”.

Take `O=C(NC[C@H](O)CN1CCc2cc(OCc3cnco3)ccc2C1)c1ccc2c(c1)CCN(C(=O)c1ccc(Br)cc1)C2` [Compound 561]: the IC50 was 50 to 500 nM on PRMT5 [1]; 500 to 5000 nM on PRMT5 [2]; 50 to 500 nM at PRMT5 [3]; at least 10000 nM with HAP1 MTAP-intact; 1000 to 10000 nM in the assay on HAP1 MTAP-deleted. Moreover, on PRMT5 [3] (setting [5]), the “SAM/MTA Ratio” value was “A (a Ki ratio greater than or equal to 10 fold between the Ki in the presence of SAM and the Ki in the presence of MTA)”. Also, the “MTAP Intact/Deleted Ratio” value with HAP1 MTAP-deleted was “B* (an IC50 ratio greater than or equal to 3 fold but lower than 10 fold between the IC50 in the HAP1 MTAP-intact cell line and the HAP1 MTAP-deleted cell line)”.
